Test results: patent US12234216B2, “Isotopologues salts, crystalline forms, stereoisomers, of methylone and ethylone and methods of use thereof” (Terran Biosciences Inc., priority 2021, dated 2025)
Structures can show the parent of a compound that is named as a salt.

Tests used:
[1] = Dynamic vapor sorption (DVS); type: physicochemical
[2] = tested on: participants diagnosed with at least moderate post-traumatic stress disorder (PTSD); experiment: Double-blind, randomized, placebo-controlled clinical trial of methylone-assisted psychotherapy in PTSD; type: in vivo, human
Description: A multicenter, randomized, double-blind, placebo-controlled trial is conducted to assess the efficacy and safety of methylone-assisted psychotherapy versus psychotherapy with placebo control in participants diagnosed with at least moderate post-traumatic stress disorder (PTSD).
This multicenter, randomized, double-blind, placebo-controlled trial is conducted at various sites in the United States with IRB approval from each study site. A flexible dose of methylone hydrochloride salt or placebo, followed by a supplemental half-dose unless contraindicated by patient's previous response or medical history, is also administered during the Treatment Period with psychotherapy in at least 3 blinded monthly Experimental Sessions. The Supplemental Dose extends the duration of drug effects on the participants during an Experimental Session. Methylone test groups are further subdivided into specific groups receiving only racemic methylone hydrochloride salt, S-methylone hydrochloride salt, or R-methylone hydrochloride salt. An optional Risk Evaluation and Mitigation Strategy (REMS) Protocol may be implemented for the racemic methylone, S-methylone, and placebo-groups. The Treatment Period lasts for approximately 12 weeks. During the Treatment Period, each Experimental Session is followed by three Intervening Sessions of non-drug psychotherapy. Each Experimental Session involves an overnight stay. The Primary Outcome measure, the change in Clinician Administered PTSD Scale for DSM-5 (CAPS-5), is determined by a blinded Independent Rater (IR) pool multiple times throughout the study. The study consists of separate periods for each participant. Initially, prospective participants undergo a Screening Period involving an initial eligibility assessment, a medical history intake, informed consent, and enrollment of eligible participants. Next, a Preparation Period is undertaken for enrolled participants involving medication tapering and clinical baseline assessments to confirm each participant meets enrollment criteria. As part of the Preparation Period, a detailed assessment of co-morbidities to PTSD is recorded. Participants may remain on prescribed courses of selective serotonin reuptake inhibitor (SSRI) or serotonin and norepinephrine reuptake inhibitor (SNRI) treatment. Dosages and/or frequency of administration of a prescribed SSRI or SNRI may be adjusted to fit within study parameters. Participants may be required to taper a prescribed course of medication in order to maintain eligibility within the study. The Treatment Period consists of three monthly Experimental Sessions and associated Intervening Sessions of integrative behavioral psychotherapy. The Treatment Period lasts approximately 12 weeks. Following the Treatment Period is a Follow-up Period and Study Conclusion. During the Follow-up Period and Study Conclusion, participants complete 4 weeks with no study visits, followed by a Study Conclusion visit.
This study compares the effects of three blinded Experimental Sessions of psychotherapy in combination with flexible doses of methylone or placebo administered as described below. Non-drug preparatory and intervening psychotherapy sessions are also included. Patient's weight is determined for dosage calculation. Initial dose is 100 mg unless this will result in a dosage of less than 1.5 mg/kg of patient weight. Initial dose thereby adjusted upward in 25 mg increments to deliver the lowest dose possible of at least 1.5 mg/kg of patient weight. Initial dose for Experimental Session 2 and 3 is cumulative dose calculated by adding the initial dose plus REMS protocol dose used the previous Experimental Session for each patient.
Randomization occurs prior to the initiation of Experimental Session 1. Each participant is provided the next randomized number in a sequence by a blinded study monitor. […]

[3] = Study Conclusion, vs placebo-treated controls

In the case of `CNC(C)C(=O)c1ccc2c(c1)OCO2` (racemic) [(rac)-Methylone Hydrochloride, 3,4-methylenedioxy-N-methylcathinone hydrochloride], the “relative humidity above which water uptake is seen” value ([1]; DVS (FIG. 26)) is reported as “above 75 % RH”, the “physical stability after the moisture sorption-desorption analysis” value ([1]; between 5% RH and 95% RH) is reported as “physically stable” and the “behaviour of the material on humidity exposure” value ([1]; exposed to 75% RH for 2 hours) is reported as “became tacky and stuck to the vial”. The “CAPS-5 assessments compared to placebo-treated controls” value ([2]; Intervening Session 1C, 2C, 3C and Study Conclusion) was “Significant improvements in CAPS-5 assessments”, the “daytime sleepiness as measured by ESS” value ([2]; Study Conclusion) was “significant improvement in lessening daytime sleepiness” and the “clinician-rated functional impairment score as measured by SDS” value [2, 3] was “significant improvement in clinician-rated functional impairment score”. The “depression as measured by HAM-D” value [2, 3] was “significant improvement depression” and the “change in CAPS-5 assessment compared to the placebo group” value ([2]; Study Conclusion, 100-200 mg p.o. initial dose, 3 Experimental Sessions with psychotherapy) was “significant mean reduction in CAPS-5 assessment”.
